Measurements as given in publication PMC2009863, “Pharmacokinetic considerations in testing hypoxic cell radiosensitizers in mouse tumours” (British Journal of Cancer, 1979).
“And” between values parts separate entries of the source, which are not always exact repeats. Equal values may be shown once. Read-outs that look alike come from different tables or passages of the source.

Experiments:
[1] = Whole blood MIS and Ro-05-9963 by HPLC after MIS in control, sham-operated and kidney-ligated mice; conditions: for half-life: mouse, in vivo, 5 mmol/kg, plasma half-life
From the text: (§1) Several groups are now pursuing such a goal (Adams, 1977; Brown et al., 1978; Wardman, 1977). […] Specifically the two ques- tions were: (a) How much does the plasma half-life affect the peak plasma level? (b) How much does the plasma half-life affect the tumour/plasma ratio of drug concentrations? MATERIALS AND METHODS A description of the procedures for implanta- tion of tumours, and irradiation and assay of the viability of the tumour cells has been published previously (Brown, 1975). Brieflv, the EMT6/St/lu tumour was transplanted into 3-month-old, syngeneic BALB/c female mice, weighing 20-25 g, and irradiated at a diameter of 6-7 mm. Immediately after irradiation the tumours were removed and minced. The only modification was that the single-cell suspensions were prepared by a 30 min disaggregation using an enzyme "'cock- tail" of 0-05% pronase, 0.02% DNAase and 21 0 02% collagenase (Brown et al., in prepara- tion). Cell viability was assayed by plating appropriate dilutions of the tumour cells into Waymouth's medium containing 15% foetal calf serum in polystyrene Petri dishes, and counting colonies 13 days later. […] Bilateral kidney ligation was performed on anaesthetized mice by exteriorizing the kidneys through a 1 cm incision in the skin and abdominal wall and tying a ligature around the renal artery and vein at the renal pelvis. The abdominal incision, which was adjoining and parallel to the line of attach- ment of the abdominal wall with the dorsal muscles, was then closed tightly with 4 or 5 stitches, and the skin incision closed with metal clips. The sham operation was identical in all respects except for ligation of the renal artery and vein. […] Plasma (or whole blood) and tumour levels of 2-nitroimidazoles were determined in different ways in the two laboratories rep- resented. In the first method, represented in Tables I and II and Fig. 1, tumour and plasma levels were determined on killing of individual mice, and were measured spectrophotomet- rically using UV absorption at 318 nm. This measures the total concentration of all 2-nitroimidazoles in the sample. The pro- cedure used was a modification of that described by Chapman et al. (1974). To measure plasma levels, 0 4 ml of plasma (collected from heparinized whole blood by cardiac puncture at the time of killing) was added to 2-6 nil absolute ethanol. The mixture was vortexed for 1 min, allowed to stand for 10 min and then centrifuged for 5 min at high speed (1000 g). Tumour levels were determined by preparing a 20% (w/v) homogenate of tumour in distilled water, and adding a 0 4 ml aliquot of homogenate to 2-6 ml absolute ethanol as described above. […] At appropriate times after MIS administration, serial blood samples were taken from the tail of the same mouse. Duplicate 5 /A samples were collected in Microcap pipettes (Drummond Scientific Company), mixed with 45 µl water and stored at -20?C. Finally (usually at 10-12-5 h) the mice were bled by cardiac puncture and the undiluted heparinized whole blood was stored at -20?C.

[2] = cited from earlier work; for tumour concentration as % of corresponding plasma concentration: clinical studies, HPLC, after MIS administration, ref Wiltshire et al.
[3] = cited from earlier work
[4] = Acute toxicity LD50/2d of MIS and Ro-05-9963; conditions: mouse, in vivo
From the text: Several groups are now pursuing such a goal (Adams, 1977; Brown et al., 1978; Wardman, 1977). […] Specifically the two ques- tions were: (a) How much does the plasma half-life affect the peak plasma level? (b) How much does the plasma half-life affect the tumour/plasma ratio of drug concentrations? MATERIALS AND METHODS A description of the procedures for implanta- tion of tumours, and irradiation and assay of the viability of the tumour cells has been published previously (Brown, 1975). Brieflv, the EMT6/St/lu tumour was transplanted into 3-month-old, syngeneic BALB/c female mice, weighing 20-25 g, and irradiated at a diameter of 6-7 mm. Immediately after irradiation the tumours were removed and minced. […] Plasma (or whole blood) and tumour levels of 2-nitroimidazoles were determined in different ways in the two laboratories rep- resented. In the first method, represented in Tables I and II and Fig. 1, tumour and plasma levels were determined on killing of individual mice, and were measured spectrophotomet- rically using UV absorption at 318 nm. […] Tumour levels were determined by preparing a 20% (w/v) homogenate of tumour in distilled water, and adding a 0 4 ml aliquot of homogenate to 2-6 ml absolute ethanol as described above. […]

[5] = From the text: Several groups are now pursuing such a goal (Adams, 1977; Brown et al., 1978; Wardman, 1977). […] Specifically the two ques- tions were: (a) How much does the plasma half-life affect the peak plasma level? (b) How much does the plasma half-life affect the tumour/plasma ratio of drug concentrations? MATERIALS AND METHODS A description of the procedures for implanta- tion of tumours, and irradiation and assay of the viability of the tumour cells has been published previously (Brown, 1975). Brieflv, the EMT6/St/lu tumour was transplanted into 3-month-old, syngeneic BALB/c female mice, weighing 20-25 g, and irradiated at a diameter of 6-7 mm. Immediately after irradiation the tumours were removed and minced. The only modification was that the single-cell suspensions were prepared by a 30 min disaggregation using an enzyme "'cock- tail" of 0-05% pronase, 0.02% DNAase and 21 0 02% collagenase (Brown et al., in prepara- tion). Cell viability was assayed by plating appropriate dilutions of the tumour cells into Waymouth's medium containing 15% foetal calf serum in polystyrene Petri dishes, and counting colonies 13 days later. […] Bilateral kidney ligation was performed on anaesthetized mice by exteriorizing the kidneys through a 1 cm incision in the skin and abdominal wall and tying a ligature around the renal artery and vein at the renal pelvis. […] Plasma (or whole blood) and tumour levels of 2-nitroimidazoles were determined in different ways in the two laboratories rep- resented. In the first method, represented in Tables I and II and Fig. 1, tumour and plasma levels were determined on killing of individual mice, and were measured spectrophotomet- rically using UV absorption at 318 nm. […] Tumour levels were determined by preparing a 20% (w/v) homogenate of tumour in distilled water, and adding a 0 4 ml aliquot of homogenate to 2-6 ml absolute ethanol as described above. […]
V-79 cells = conditions: cited from earlier work
[6] = Plasma and tumour levels of total 2-nitroimidazoles, UV spectrophotometric assay at 318 nm, EMT6 tumour-bearing mice, normal or bilateral kidney ligation; conditions: for Plasma concn. / Tumour concn.: Table I, 5 mmol/kg i.p.; for Plasma concn. / Tumour concn. / Plasma concentration / Tumour concentration: individual mice; for Plasma concentration, Mean / Tumour concentration, Mean / Plasma concentration / Tumour concentration: Table II, 5 mmol/kg
From the text: as §1

[7] = design: method as in Adams et al., 1976; Brown et al., 1978; conditions: ref Adams et al., 1976; Brown et al., 1978; cited from earlier work
[8] = BKL Yes, 38 min after injection

## COCC(O)Cn1ccnc1[N+](=O)[O-] (stereo not drawn) [MIS, 1-(2-nitroimidazol-1-yl)-3-methoxypropan-2-ol]
[1]; BALB/c, bilateral kidney ligation before injection
  half-life: 10 to 11 h
[1]; BALB/c, normal mice
  half-life: ~2 h
[1]; ip, bilateral kidney ligation before injection
  half-life: 10 h
[1]; normal and sham-operated mice after MIS
  glucuronide conjugates of MIS and Ro-05-9963 in plasma: not found
[2]; 1978, Workman et al., 1978b
  tumour concentration as % of corresponding plasma concentration: 50-70%
[2]; human tumours, ref Gray et al., 1976, Dische et al., 1977, Urtasun et al.
  tumour concentration as % of plasma levels: 42-107%
[2]; plasma, ref Foster et al., 1975, Dische et al., 1977, Wiltshire et al., 1978, Workman et al., 1978b
  half-life in man: ~12 h
[3]; MT mouse tumour and some normal mouse tissues, particularly at less than 6 h, ref Flockhart et al. (1978c)
  uptake of (2-14C) MIS as % of plasma concentration: less than 100%
[3]; different mouse tumours, ref McNally et al. (1978)
  tumour concentration as % of that in blood: 18-72%
[4]
  LD50 at 2 d: 1830 mg/kg
[5]; 9 h after MIS injection, controls
  rectal temperature below uninjected mice: ≤ 3 °C
[5]; 9 h after MIS injection, kidney-ligated mice
  rectal temperature below the uninjected level: 7 °C
[5]; first 5 h after MIS injection, all 3 groups
  rectal temperature drop: 5.0 °C

## O=[N+]([O-])c1nccn1CC(O)CO (stereo not drawn) [Ro-05-9963, 1-(2-nitroimidazol-1-yl)-2,3-pro-pandiol]
[1]; 38 min after MIS injection, control and nephrectomized mice
  proportion of Ro-05-9963 to total non-conjugated 2-nitroimidazoles: 5%
[1]; 6.5 h after MIS injection, nephrectomized mice
  proportion of Ro-05-9963 to total non-conjugated 2-nitroimidazoles: 22%
[1]; 6.5 h after MIS injection, normal mice
  proportion of Ro-05-9963 to total non-conjugated 2-nitroimidazoles: 24%
V-79 cells; V-79 cells in vitro, ref Adams et al. (1976)
  radiosensitizing effectiveness compared with MIS: slightly less effective
V-79 cells; in vitro, ref Flockhart et al. (1968b)
  radiosensitizing effectiveness compared with MIS: slightly more so
[2]; 1978, Workman et al., 1978b
  tumour concentration as % of corresponding plasma concentration: 50-70%
[6]; EMT6 tumour
  tumour levels lower than plasma concentration: 30-40%
[6]; Fig. 1, normal BALB/c mice, equal peak plasma levels: MIS 5 mmol/kg, Ro-05-9963 10 mmol/kg i.p.
  plasma half-life: 0.55 h
[6]; 30 min after inj.
  Plasma concn.: 2 to 8 mM and 2 to 4 mM and 2 to 6 mM
  Tumour concn.: 0-77 mM and 1.5 mM and 1-1 mM
[6]; 37.5 min after inj.
  Plasma concn.: 2-4 mM (2×) and 2-5 mM and 0-88 mM
  Tumour concn.: 2-4 mM and 1-7 mM (2×)
[6]; 45 min after inj.
  Plasma concn.: 1 to 5 mM and 0 to 38 mM and 1 to 2 mM
  Tumour concn.: 0 to 74 mM and 0 to 76 mM and 0 to 25 mM
[6]; BKL No, 38 min after injection
  Plasma concentration, Mean: 1000 to 4000 µM
  Tumour concentration, Mean: 1-1 mM
  Plasma concentration: 0 to 42 mM and 0 to 51 mM and 1 to 93 mM and 2 to 16 mM and 2 to 36 mM and 1 to 27 mM
  Tumour concentration: 0 to 24 mM and 0 to 25 mM and 2 to 35 mM and 1 to 30 mM and 1 to 58 mM and 0 to 90 mM
[6]; BKL Yes, 6 h after injection
  Plasma concentration, Mean: 4000 to 8000 µM
  Tumour concentration, Mean: 2 to 8 mM
  Plasma concentration: 5.9 mM and 4 to 6 mM and 4 to 7 mM
  Tumour concentration: 2 to 3 mM and 2 to 9 mM and 3 to 7 mM
[6]; [8]
  Plasma concentration: 4.7 mM (2×) and 5.4 mM and 4-9 mM
  Tumour concentration: 4.3 mM and 2 to 4 mM and 2 to 8 mM and 1 to 6 mM
[6]; equimolar injected doses, normal mice
  plasma and tumour concentrations less than those of MIS, factor: ≥ 2
[7]
  lipophilicity compared with MIS: considerably less lipophilic
